Results reported in US20250084080A1, “CRYSTALLINE AND SALT FORMS OF AN NLRP3 INHIBITOR” (BioAge Labs, Inc., priority 2023, published 2025).

Experiments:
Assay type in all cases: physicochemical
[1] = Bulk stability (solid state, 1 week; HPLC, XRPD, IC, color); conditions: sodium salt
[2] = Hygroscopicity by dynamic vapor sorption (DVS) at 25° C.; conditions: for Desorp. (%) / Sorp. (%): DVS 25° C.
In short: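 About 5–10 mg sample was cycled 40-0-95-0-40% RH in 10% steps at 25 °C with water vapour. Equilibrium criterion was 0.002 %/min dm/dt, with a minimum 60 min stability duration and a maximum 360 min per stage.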

[3] = Bulk stability (solid state, 1 week; HPLC, XRPD, IC, color); parameters: key to CL (color): A: no change of color; B: slight discoloration; C: medium discoloration; D: strong discoloration
Experimental: Bulk stability of free form Pattern B was evaluated at 25° C./92.5% RH in an open container, at 40° C./75% RH in an open container and at 60° C. in a tight container over 1 week.

[4] = Solubility at 37° C. in buffers and biorelevant media, XRPD of residual solid; conditions: for solubility at 2 h / solubility at 24 h: thermodynamic from solid
In short: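 Solids equivalent to 10 mg anhydrous free form were stirred in 5 mL of each medium (pH 1.2 HCl, pH 4.5 acetate, pH 6.8 phosphate, water, FaSSGF, FaSSIF-v1, FeSSIF-v1, HPMC/Pluronic in acetate) at 37 °C, 400 rpm. Sampled at 2 h and 24 h; supernatant analyzed by HPLC plus pH, 24 h residual solid by XRPD.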

[5] = 25° C./92.5% RH open, 40° C./75% RH open, 60° C. tight container
[6] = Solid state, 25° C./92.5% RH, open
[7] = Solid state, 40° C./75% RH, open
[8] = aqueous buffer, pH 4.5 acetate buffer (50 mM), 37° C.
[9] = aqueous buffer, pH 6.8 phosphate buffer (50 mM), 37° C.
[10] = aqueous with cosolvent or surfactant or cyclodextrin, 2% HPMC + 1% Pluronic F68 in pH 4.5 acetate buffer (50 mM), 37° C.
[11] = fassgf or other biorelevant, FaSSGF, pH 1.6, 37° C.
[12] = simulated gastric fluid, pH 1.2 HCl buffer, 37° C.

In the case of `CCOc1cc(C(=O)N(C)Cc2cnc(CO)c3cn[nH]c23)ccc1-c1cc(F)cc(F)c1.[Na]` [Sodium salt Pattern A, 2-ethoxy-3′,5′-difluoro-N-((4-(hydroxymethyl)-1H-pyrazolo[4,3-c]pyridin-7-yl)methyl)-N-methyl-[1,1′-biphenyl]-4-carboxamide sodium salt], the “Bulk (XRPD)” value ([1]; 25° C./92.5% RH, open) is reported as “dissociated to free form Pattern A”, the “Bulk (XRPD)” value ([1]; 60° C., closed) is reported as “No form change” and the “Desorp. (%)” value ([2]; 0% RH, 1st desorption) is reported as 0.05%. For the same compound, the “Sorp. (%)” value ([2]; 0% RH, 1st sorption) was 0.05%, the “Desorp. (%)” value ([2]; 0% RH, 2nd desorption) was 0.00% and the “Sorp. (%)” value ([2]; 0% RH, 2nd sorption) was 0.00%. For the same compound, the “Desorp. (%)” value ([2]; 10% RH, 1st desorption) was 0.20%, the “Sorp. (%)” value ([2]; 10% RH, 1st sorption) was 0.17% and the “Desorp. (%)” value ([2]; 10% RH, 2nd desorption) was 0.18%. For the same compound, the “Sorp. (%)” value ([2]; 10% RH, 2nd sorption) was 0.14%, the “Desorp. (%)” value ([2]; 20% RH, 1st desorption) was 0.28% and the “Sorp. (%)” value ([2]; 20% RH, 1st sorption) was 0.23%. For the same compound, the “Desorp. (%)” value ([2]; 20% RH, 2nd desorption) was 0.25%, the “Sorp. (%)” value ([2]; 20% RH, 2nd sorption) was 0.21% and the “Desorp. (%)” value ([2]; 30% RH, 1st desorption) was 0.35%. The “Sorp. (%)” value ([2]; 30% RH, 1st sorption) was 0.30%, the “Desorp. (%)” value ([2]; 30% RH, 2nd desorption) was 0.33% and the “Sorp. (%)” value ([2]; 30% RH, 2nd sorption) was 0.28%. For the same compound, the “Desorp. (%)” value ([2]; 40% RH, 1st desorption) was 0.45%, the “Sorp. (%)” value ([2]; 40% RH, 1st sorption) was 0.38% and the “Desorp. (%)” value ([2]; 40% RH, 2nd desorption) was 0.94%. The “Sorp. (%)” value ([2]; 40% RH, 2nd sorption) was 0.38%, the “Sorp. (%)” value ([2]; 50% RH, 1st sorption) was 0.49% and the “Desorp. (%)” value ([2]; 50% RH, 2nd desorption) was 1.69%. For the same compound, the “Sorp. (%)” value ([2]; 60% RH, 1st sorption) was 0.94%, the “Desorp. (%)” value ([2]; 60% RH, 2nd desorption) was 2.23% and the “Sorp. (%)” value ([2]; 70% RH, 1st sorption) was 1.87%. For the same compound, the “Desorp. (%)” value ([2]; 70% RH, 2nd desorption) was 2.55%, the “Sorp. (%)” value ([2]; 80% RH, 1st sorption) was 2.71% and the “Desorp. (%)” value ([2]; 80% RH, 2nd desorption) was 3.05%. The “Sorp. (%)” value ([2]; 90% RH, 1st sorption) was 4.13%, the “Desorp. (%)” value ([2]; 90% RH, 2nd desorption) was 4.35% and the “Sorp. (%)” value ([2]; 95% RH, 1st sorption) was 6.60%. For the same compound, the “Desorp. (%)” value ([2]; 95% RH, 2nd desorption) was 6.60%, the “XRPD after DVS test” value ([2]; DVS at 25° C., sodium salt) was “No form change” and the “Bulk stability, chemical and physical” value [3, 5] was “chemically stable but physically unstable”. For the same compound, the “Degradation by HPLC” value [3, 5] was “no obvious degradation”, the “Bulk (HPLC) Purity” value [3, 6] was 98.7% and the “CL (color)” value [3, 6] was “A”. For the same compound, the “Bulk (HPLC) Purity” value [3, 7] was 98.7%, the “CL (color)” value [3, 7] was “A” and the “Bulk (XRPD)” value ([3]; Solid state, 40° C./75% RH, open, sodium salt) was “dissociated to free form Pattern A”. The “Bulk (HPLC) Purity” value ([3]; Solid state, 60° C., closed) was 98.7%, the “CL (color)” value ([3]; Solid state, 60° C., closed) was “A” and the “pH of supernatant at 24 h” value ([4]; 2% HPMC + 1% Pluronic F68 in pH 4.5 acetate buffer (50 mM), 37° C.) was “(4.7)”. For the same compound, the “Solubility compared with the free form Pattern A” value ([4]; 2% HPMC+1% Pluronic F68 in acetate buffer (pH 4.5)) was “obviously improved solubility”, the “pH of supernatant at 24 h” value ([4]; FaSSGF, pH 1.6, 37° C.) was “(1.8)” and the “pH of supernatant at 24 h” value ([4]; FaSSIF-v1, pH 6.5, 37° C.) was “(6.7)”. The “pH of supernatant at 24 h” value ([4]; FeSSIF-v1, pH 5.0, 37° C.) was “(5.1)”, the “pH of supernatant at 24 h” value ([4]; Water, 37° C.) was “(11.1)” and the solubility at 2 h [4, 8] was 9.3 µg/mL. It also gave a solubility at 24 h [4, 8] of 7.4 µg/mL, a solubility at 2 h [4, 9] of 3.1 µg/mL and a solubility at 24 h [4, 9] of 2.8 µg/mL. For the same compound, the solubility at 2 h [4, 10] was 273 µg/mL, the solubility at 24 h [4, 10] was 260 µg/mL and the solubility at 2 h [4, 11] was 664 µg/mL. For the same compound, the solubility at 24 h [4, 11] was 630 µg/mL, the “pH of supernatant at 24 h” value ([4]; pH 1.2 HCl buffer, 37° C.) was “(1.3)” and the “pH of supernatant at 24 h” value ([4]; pH 4.5 acetate buffer (50 mM), 37° C.) was “(4.6)”. The “pH of supernatant at 24 h” value ([4]; pH 6.8 phosphate buffer (50 mM), 37° C.) was “(7.0)”, the solubility at 2 h [4, 12] was 608 µg/mL and the solubility at 24 h [4, 12] was 511 µg/mL. It also gave a solubility at 2 h ([4]; FaSSIF-v1, pH 6.5, 37° C.) of 10.2 µg/mL, a solubility at 24 h ([4]; FaSSIF-v1, pH 6.5, 37° C.) of 13.1 µg/mL and a solubility at 2 h ([4]; FeSSIF-v1, pH 5.0, 37° C.) of 144 µg/mL. For the same compound, the solubility at 24 h ([4]; FeSSIF-v1, pH 5.0, 37° C.) was 149 µg/mL, the solubility at 2 h ([4]; Water, 37° C.) was 7.7 µg/mL and the solubility at 24 h ([4]; Water, 37° C.) was 8.2 µg/mL.
